# In US12552771B2, “Carboxylic acid containing azetidinyl compounds for the treatment of neurodegenerative diseases” (Celgene Corporation, priority 2021, dated 2026):
# Target: T1, S1P5 receptors (Homo sapiens, UniProt Q9H228)
# T1 construct: expressed in transfected cells; host or cells: CHO cells (membranes)
# Experiment: [35S]-GTPγS binding assay with CHO-S1P5 receptor membranes
# Assay type: biochemical
# Conditions: membranes of CHO cells expressing recombinant S1P5 receptors; measure of S1P5 agonism
# Experimental: CHO cells expressing recombinant S1P5 receptors were cultured in 500 cm^2 culture trays and, once confluent, rinsed and detached with cell-lifting buffer (10 mM HEPES, 154 mM NaCl, 6.85 mM EDTA, pH 7.4). Cells were then pelleted by centrifugation, resuspended, and homogenized in membrane preparation buffer (10 mM HEPES and 10 mM EDTA, pH 7.4) using a Polytron PT 1200E homogenizer (Kinematica, Luzern, Switzerland). Cellular proteins were pelleted by centrifugation at 48,000×g at 4° C. for 30 minutes. The resulting supernatant was discarded, and the pellet was re-suspended again in membrane preparation buffer, homogenized for a second time, and then centrifuged again as described above. The final cellular protein pellet was suspended in ice cold resuspension buffer (10 mM HEPES and 0.1 mM EDTA, pH 7.4), divided into aliquots, and stored at −80° C. until use.
# Functional binding assays for [^35]-GTPγS were performed in 96-well non-binding surface plates with a final volume of 200 μL. The test compounds were serially diluted in DMSO and added to assay plates using a Tecan D300E digital printer with a total volume of […]. The control sphingosine-1-phosphate (SiP) was prepared separately by preparing a 400 μM stock solution from a 100 nmol pellet of SiP in 10 mM Na2CO3 with 2% […]. The serial dilution of SiP was done using complete assay buffer (20 mM HEPES, 10 mM MgCl2, 100 mM NaCl, 1 mM EDTA, 0.1% fatty acid free bovine serum albumin (BSA), and 30 μg/mL saponin, pH 7.4) and transferred to wells already containing 0.4 μL DMSO. All the wells were then loaded to a total volume of 40 μL of complete assay buffer, except the non-specific binding (NSB) wells. For NSB wells, 40 μL/well of 50 μM GTPγS (Sigma Aldrich, cat #G8634, St. Louis, MO) was added to wells containing 0.4 μL of DMSO. The assay was started by the addition of 120 μL/well of CHO-S1P receptor membrane solution containing 40 μg/mL of membrane protein, 16.67 μM guanosine diphosphate (GDP; Sigma Aldrich, cat #G7127, St. Louis, MO), and 2.5 mg/mL of WGA PVT SPA beads in complete buffer. Assay plates were then sealed and incubated at room temperature with gentle agitation for 30 minutes. Next, 40 μL/well of 1 nM of [^35]-GTPγS (PerkinElmer, cat #NEG030X250UC, Waltham, MA) in basic assay buffer (20 mM HEPES, 10 mM MgCl2, 100 mM NaCl, and 1 mM EDTA, pH7.4) was added to the assay plates to yield a final concentration of 200 pM and the plates were further incubated for 40 minutes at room temperature with gentle agitation. The assay was terminated by centrifugation of the plates at 1000 rpm for 3 minutes using an Eppendorf 5810R centrifuge (Eppendorf, Hamburg, Germany) and G protein bound radioactivity was quantitated using a MicroBeta2 microplate scintillation counter (PerkinElmer, Waltham, MA). As G protein bound radioactivity directly correlates to receptor activation and coupling to the G protein, this assay is a measure of S1P5 agonism.
# T1 sequence (Q9H228 whole entry): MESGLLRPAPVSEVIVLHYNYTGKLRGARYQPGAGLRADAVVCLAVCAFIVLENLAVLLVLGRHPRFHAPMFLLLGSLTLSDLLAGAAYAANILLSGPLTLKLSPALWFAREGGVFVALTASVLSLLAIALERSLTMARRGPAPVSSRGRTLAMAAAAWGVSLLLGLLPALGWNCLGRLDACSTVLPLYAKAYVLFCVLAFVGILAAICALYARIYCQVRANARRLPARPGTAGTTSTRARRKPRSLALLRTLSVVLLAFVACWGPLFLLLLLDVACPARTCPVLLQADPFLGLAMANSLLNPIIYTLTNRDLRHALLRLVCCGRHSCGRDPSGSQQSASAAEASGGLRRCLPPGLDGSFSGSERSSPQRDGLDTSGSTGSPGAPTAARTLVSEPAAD
row,EC50,Compound
1,≤ 10 nM,"Cc1cc(C2CN(c3c(Cl)cccc3Cl)C2)cc(Cl)c1CN1CCC(C(=O)O)CC1 [Compound 51, 1-(2-chloro-4-(1-(2,6-dichlorophenyl)azetidin-3-yl)-6-methylbenzyl)-piperidine-4-carboxylic acid]"
2,≤ 10 nM,"CCc1cc(C2CN(c3c(Cl)cccc3Cl)C2)cc(CC)c1CN1CCC(C(=O)O)CC1 [Compound 52, 1-(4-(1-(2,6-dichlorophenyl)azetidin-3-yl)-2,6-diethylbenzyl)piperidine-4-carboxylic acid]"
3,100 to 1000 nM,"CC(C)c1cc(C2CN(c3c(Cl)cccc3Cl)C2)cc(C(C)C)c1CN1CCC(C(=O)O)CC1 [Compound 53, 1-(4-(1-(2,6-dichlorophenyl)azetidin-3-yl)-2,6-diisopropylbenzyl)piperidine-4-carboxylic acid]"
4,≤ 10 nM,"O=C(O)C1CCN(Cc2ccc(C3CN(c4c(Cl)cccc4Cl)C3)c3ccccc23)CC1 [Compound 54, 1-((4-(1-(2,6-dichlorophenyl)azetidin-3-yl)naphthalen-1-yl)methyl)-piperidine-4-carboxylic acid]"
5,≤ 10 nM,"CCc1cc(C2CN(c3c(Cl)cccc3Cl)C2)cc(C)c1CN1CCC(C(=O)O)CC1 [Compound 55, 1-(4-(1-(2,6-dichlorophenyl)azetidin-3-yl)-2-ethyl-6-methylbenzyl)-piperidine-4-carboxylic acid]"
6,≤ 10 nM,"O=C(O)C1CCN(Cc2ccc(C3CN(c4c(Cl)cccc4Cl)C3)cc2C2CC2)CC1 [Compound 56, 1-(2-cyclopropyl-4-(1-(2,6-dichlorophenyl)azetidin-3-yl)benzyl)piperidine-4-carboxylic acid]"
7,≤ 10 nM,"Cc1cc(C2CN(c3c(Cl)cccc3Cl)C2)cc(C2CC2)c1CN1CCC(C(=O)O)CC1 [Compound 57, 1-(2-cyclopropyl-4-(1-(2,6-dichlorophenyl)azetidin-3-yl)-6-methylbenzyl)-piperidine-4-carboxylic acid]"
8,10 to 100 nM,"Cc1cc(C2CN(c3c(Cl)cccc3Cl)C2)cc(C#N)c1CN1CCC(C(=O)O)CC1 [Compound 58, 1-(2-cyano-4-(1-(2,6-dichlorophenyl)azetidin-3-yl)-6-methylbenzyl)-piperidine-4-carboxylic acid]"
9,≤ 10 nM,"Cc1cc(C2CN(c3c(Cl)cccc3Cl)C2)cc(C)c1CN1CC(C(=O)O)C1 [Compound 59, 1-(4-(1-(2,6-dichlorophenyl)azetidin-3-yl)-2,6-dimethylbenzyl)azetidine-3-carboxylic acid]"
10,≤ 10 nM,"Cc1cc(C2CN(c3c(Cl)cccc3Cl)C2)cc(C)c1CN1CC[C@@H](C(=O)O)C1 [Compound 60, (R)-1-(4-(1-(2,6-dichlorophenyl)azetidin-3-yl)-2,6-dimethylbenzyl) pyrrolidine-3-carboxylic acid]"
11,≤ 10 nM,"Cc1cc(C2CN(c3c(Cl)cccc3Cl)C2)cc(C)c1CN1CCC(C(=O)O)C(C)C1 (centres unmarked) [Compound 61, 1-(4-(1-(2,6-dichlorophenyl)azetidin-3-yl)-2,6-dimethylbenzyl)-3-methyl-piperidine-4-carboxylic acid]"
12,≤ 10 nM,"Cc1cc(C2CN(c3c(Cl)cccc3Cl)C2)cc(C)c1CN1CC[C@H](C(=O)O)C1 [Compound 62, (S)-1-(4-(1-(2,6-dichlorophenyl)azetidin-3-yl)-2,6-dimethylbenzyl)-pyrrolidine-3-carboxylic acid]"
13,10 to 100 nM,"Cc1cc(C2CN(c3c(Cl)cccc3Cl)C2)cc(C)c1CN1CCC(C(=O)O)CC1C (centres unmarked) [Compound 63, 1-(4-(1-(2,6-dichlorophenyl)azetidin-3-yl)-2,6-dimethylbenzyl)-2-methyl-piperidine-4-carboxylic acid]"
14,≤ 10 nM,"Cc1cc(C2CN(c3c(Cl)cccc3Cl)C2)cc(C)c1CN1CCC(C(=O)O)C(F)C1 (centres unmarked) [Compound 64, 1-(4-(1-(2,6-dichlorophenyl)azetidin-3-yl)-2,6-dimethylbenzyl)-3-fluoro-piperidine-4-carboxylic acid]"
15,10 to 100 nM,"Cc1cc(C2CN(c3c(Cl)cccc3Cl)C2)cc(C)c1CN1CCC(C(=O)O)CC1(C)C (centres unmarked) [Compound 65, 1-(4-(1-(2,6-dichlorophenyl)azetidin-3-yl)-2,6-dimethylbenzyl)-2,2-dimethylpiperidine-4-carboxylic acid]"
16,≤ 10 nM,"Cc1cc(C2CN(c3c(C)cccc3F)C2)cc(C)c1CN1CCC(C(=O)O)CC1 [Compound 66, 1-(4-(1-(2-fluoro-6-methylphenyl)azetidin-3-yl)-2,6-dimethylbenzyl)-piperidine-4-carboxylic acid]"
17,≤ 10 nM,"Cc1cc(C2CN(c3c(C)cccc3Cl)C2)cc(C)c1CN1CCC(C(=O)O)CC1 [Compound 67, 1-(4-(1-(2-chloro-6-methylphenyl)azetidin-3-yl)-2,6-dimethylbenzyl)-piperidine-4-carboxylic acid]"
18,≤ 10 nM,"CCc1cccc(C)c1N1CC(c2cc(C)c(CN3CCC(C(=O)O)CC3)c(C)c2)C1 [Compound 68, 1-(4-(1-(2-ethyl-6-methylphenyl)azetidin-3-yl)-2,6-dimethylbenzyl)-piperidine-4-carboxylic acid]"
19,≤ 10 nM,"CCc1cccc(CC)c1N1CC(c2cc(C)c(CN3CCC(C(=O)O)CC3)c(C)c2)C1 [Compound 69, 1-(4-(1-(2,6-diethylphenyl)azetidin-3-yl)-2,6-dimethylbenzyl)piperidine-4-carboxylic acid]"
20,10 to 100 nM,"Cc1cc(C2CN(c3ccccc3C3CC3)C2)cc(C)c1CN1CCC(C(=O)O)CC1 [Compound 70, 1-(4-(1-(2-cyclopropylphenyl)azetidin-3-yl)-2,6-dimethylbenzyl)piperidine-4-carboxylic acid]"
21,≤ 10 nM,"Cc1cc(C2CN(c3c(C)cccc3C3CC3)C2)cc(C)c1CN1CCC(C(=O)O)CC1 [Compound 71, 1-(4-(1-(2-cyclopropyl-6-methylphenyl)azetidin-3-yl)-2,6-dimethylbenzyl)-piperidine-4-carboxylic acid]"
22,10 to 100 nM,"Cc1cc(C2CN(c3c(C)cccc3C(F)F)C2)cc(C)c1CN1CCC(C(=O)O)CC1 [Compound 72, 1-(4-(1-(2-(difluoromethyl)-6-methylphenyl)azetidin-3-yl)-2,6-dimethyl-benzyl)piperidine-4-carboxylic acid]"
23,≤ 10 nM,"Cc1cc(C2CN(c3c(C)cccc3C(F)(F)F)C2)cc(C)c1CN1CCC(C(=O)O)CC1 [Compound 73, 1-(2,6-dimethyl-4-(1-(2-methyl-6-(trifluoromethyl)phenyl)azetidin-3-yl)-benzyl)piperidine-4-carboxylic acid]"
24,≤ 10 nM,"Cc1cc(C2CN(c3c(C)cccc3C#N)C2)cc(C)c1CN1CCC(C(=O)O)CC1 [Compound 74, 1-(4-(1-(2-cyano-6-methylphenyl)azetidin-3-yl)-2,6-dimethylbenzyl)-piperidine-4-carboxylic acid]"
25,100 to 1000 nM,"Cc1cc(C2CN(c3cccc4ccccc34)C2)cc(C)c1CN1CCC(C(=O)O)CC1 [Compound 75, 1-(2,6-dimethyl-4-(1-(naphthalen-1-yl)azetidin-3-yl)benzyl)piperidine-4-carboxylic acid]"
26,10 to 100 nM,"Cc1cc(C2CN(c3c(Cl)cccc3Cl)C2)cnc1CN1CCC(C(=O)O)CC1 [Compound 76, 1-((5-(1-(2,6-dichlorophenyl)azetidin-3-yl)-3-methylpyridin-2-yl)methyl)-piperidine-4-carboxylic acid]"
27,100 to 1000 nM,"Cc1cc(CN2CCC(C(=O)O)CC2)ncc1C1CN(c2c(Cl)cccc2Cl)C1 [Compound 77, 1-((5-(1-(2,6-dichlorophenyl)azetidin-3-yl)-4-methylpyridin-2-yl)methyl)-piperidine-4-carboxylic acid]"
28,100 to 1000 nM,"Cc1cc(C2CN(c3c(Cl)cccc3Cl)C2)ncc1CN1CCC(C(=O)O)CC1 [Compound 78, 1-((6-(1-(2,6-dichlorophenyl)azetidin-3-yl)-4-methylpyridin-3-yl)methyl)-piperidine-4-carboxylic acid]"
29,100 to 1000 nM,"Cc1cc(CN2CCC(C(=O)O)CC2)cnc1C1CN(c2c(Cl)cccc2Cl)C1 [Compound 79, 1-((6-(1-(2,6-dichlorophenyl)azetidin-3-yl)-5-methylpyridin-3-yl)methyl)piperidine-4-carboxylic acid]"
